{
  "source": "patent US20260232745A1",
  "about": "“INHIBITION OF METHANE PRODUCTION IN RUMINANTS” (Loam Bio Pty Ltd, priority 2023, published 2026)",
  "key": {"[1]": {"test_system": "methane production", "conditions": "among the antimethanogenic compounds found in A. taxiformis; cited from earlier work"}, "[2]": {"test_system": "Curvularia sp. 4388 (NMI Accession No. V22/011149) VHPO, culture supernatant", "conditions": "MCD assay; for Km: pH 5.5, 25° C.", "description": "(§1) Kinetic parameters of VHPOs were determined using the monochlorodimedone (MCD) (2-chloro-5,5-dimethyl-1,3-dimedon) assay. The assay was carried out in a 200 μL reaction volume using Greiner UV-Star® 96 well plates. MCD conversion was spectrophotometrically monitored at 290 nm (F=20/mM·cm) using a CLARIOstar® Plus microplate reader (BMG labtech, Germany) at 25° C. […] The buffers were acetate buffer for pH 4-5.5, MES buffer for pH 6 and 6.5, and HEPES buffer for pH 7-8. The MCD mixture was prepared and aliquoted to 96-well plates, followed by enzyme addition (10 μL of appropriate dilution). […] Stock solutions were prepared in advance for KBr (0.25M), Na3VO4 (25 mM), MCD (0.5 mM, adjusted pH to 6), and buffers (1M).\n(§2) The absorbance values were plotted against time. For each curve, the slope of linear regression was determined as the initial velocity (Abs/min) of the enzyme activity."}, "[3]": {"test_system": "Curvularia sp. 4388 (NMI Accession No. V22/011149) VHPO, purified, SEQ ID NO: 2", "conditions": "MCD assay; for Km: pH 5.5, 25° C.", "description": "as §1, §2\n(§3) The following enzyme concentrations were used in the MCD assay: • For Curvularia sp."}, "[4]": {"test_system": "Curvularia spicifera US-188 (ATCC PTA-127510) VHPO, purified, SEQ ID NO: 3", "conditions": "MCD assay; for Ki: pH 6.5, substrate inhibition model; for Km: pH 6.5, 25° C.", "description": "as §1, §2, §3"}, "[5]": {"test_system": "Curvularia pseudobrachyspora US-215 (ATCC PTA-127509) VHPO, purified, SEQ ID NO: 5", "conditions": "MCD assay; for Ki: pH 5.5, substrate inhibition model; for Km: pH 5.5, 25° C.", "description": "as §1, §2, §3"}, "[6]": {"test_system": "Curvularia protuberata US-1111 (ATCC PTA-127607) VHPO, purified, SEQ ID NO: 7", "conditions": "MCD assay; for Km: pH 5.5, 25° C.", "description": "as §1, §2, §3"}, "[7]": {"test_system": "methyl-coenzyme M reductase (MCR)", "conditions": "background; cited from earlier work"}, "[8]": {"test_system": "VHPO expressed in Curvularia sp. 4388 (SEQ ID NO: 2)", "test": "Enzyme reaction via VHPO mediated pathway, bromoform by GCMS", "format": "biochemical", "conditions": "VHPO (Curvularia sp. AU-4388 supernatant), KBr, H2O2, vanadate, 24 hours at room temperature"}, "[9]": {"test": "MCD assay, pH profile of VHPO activity", "format": "biochemical", "conditions": "for Optimal pH: first value of the cell: pH at which the kinetic parameters were determined; for optimal pH of enzyme activity: typical MCD assay, 25° C., value in brackets in Table 8, footnotes and text"}, "[10]": {"conditions": "pH 5.5, final 20-fold dilution of supernatant"}, "[11]": {"conditions": "read-out: KI (Br-), pH 5.5, substrate inhibition model"}, "[12]": {"conditions": "pH 5.5, final 200-fold dilution"}, "[13]": {"conditions": "read-out: KM (H2O2), H2O2 varied"}},
  "note": "Read-outs that look alike come from different tables or passages of the source.",
  "data": [
    {"molecule": "ClC(Br)Br", "note": "[dibromochloromethane]", "values": [
      {"measurement": "activity at inhibiting methane production", "setting": "[1]", "result": "highest activity"}
    ]},
    {"molecule": "[Br-].[K+]", "note": "[Br-, bromide]", "values": [
      {"measurement": "Vmax (Br-)", "setting": "[2]; [10]", "result": "0.964 [Abs/min]"},
      {"measurement": "Ki", "setting": "[2]; [11]", "result": 1.33, "unit": "mM"},
      {"measurement": "Km", "setting": "[2]; read-out: KM (Br-), KBr varied", "result": 155, "unit": "µM"},
      {"measurement": "Vmax (Br-)", "setting": "[3]; [12]", "result": "0.395 [Abs/min]"},
      {"measurement": "Ki", "setting": "[3]; [11]", "result": 2.9, "unit": "mM"},
      {"measurement": "Km", "setting": "[3]; read-out: KM (Br-), KBr varied", "result": 68, "unit": "µM"},
      {"measurement": "Vmax (Br-)", "setting": "[4]; pH 6.5, final 20-fold dilution", "result": "0.356[Abs/min]"},
      {"measurement": "Ki", "setting": "[4]; read-out: KI (Br-)", "result": 17.5, "unit": "mM"},
      {"measurement": "Km", "setting": "[4]; read-out: KM (Br-), KBr varied", "result": 125, "unit": "µM"},
      {"measurement": "Vmax (Br-)", "setting": "[5]; pH 5.5, final 20-fold dilution", "result": "0.039 [Abs/min]"},
      {"measurement": "Ki", "setting": "[5]; read-out: KI (Br-)", "result": 9.35, "unit": "mM"},
      {"measurement": "Km", "setting": "[5]; read-out: KM (Br-), KBr varied", "result": 73, "unit": "µM"},
      {"measurement": "Vmax (Br-)", "setting": "[6]; pH 5.5, final 20-fold dilution", "result": "0.0083 [Abs/min]"},
      {"measurement": "Ki", "setting": "[6]; [11]", "result": 33.6, "unit": "mM"},
      {"measurement": "Km", "setting": "[6]; read-out: KM (Br-), KBr varied", "result": 38.7, "unit": "µM"}
    ]},
    {"molecule": "BrC(Br)Br", "note": "[bromoform]", "values": [
      {"measurement": "inhibition of methyl-coenzyme M reductase (MCR)", "setting": "[7]", "result": "competitive inhibitor"}
    ]},
    {"molecule": "OO", "note": "[H2O2, hydrogen peroxide]", "values": [
      {"measurement": "Vmax (H2O2)", "setting": "[2]; [10]", "result": "0.466 [Abs/min]"},
      {"measurement": "Km", "setting": "[2]; [13]", "result": 297, "unit": "µM"},
      {"measurement": "Vmax (H2O2)", "setting": "[3]; [12]", "result": "0.378 [Abs/min]"},
      {"measurement": "Km", "setting": "[3]; [13]", "result": 645, "unit": "µM"},
      {"measurement": "Vmax (H2O2)", "setting": "[4]; pH 6.5, final 20-fold dilution", "result": "0.357 [Abs/min]"},
      {"measurement": "Ki", "setting": "[4]; read-out: KI (H2O2)", "result": 2.76, "unit": "mM"},
      {"measurement": "Km", "setting": "[4]; [13]", "result": 400, "unit": "µM"},
      {"measurement": "Vmax (H2O2)", "setting": "[5]; pH 5.5, final 20-fold dilution", "result": "0.123 [Abs/min]"},
      {"measurement": "Ki", "setting": "[5]; read-out: KI (H2O2)", "result": 31.3, "unit": "mM"},
      {"measurement": "Km", "setting": "[5]; [13]", "result": 3300, "unit": "µM"},
      {"measurement": "Vmax (H2O2)", "setting": "[6]; pH 5.5, final 20-fold dilution", "result": "0.0103 [Abs/min]"},
      {"measurement": "Km", "setting": "[6]; [13]", "result": 611, "unit": "µM"}
    ]},
    {"molecule": "BrC(Br)Br", "note": "[Bromoform, bromoform]", "values": [
      {"measurement": "activity at inhibiting methane production", "setting": "[1]", "result": "highest activity"}
    ]},
    {"molecule": "CC1(C)CC(=O)CC(=O)C1", "note": "[dimedone]", "values": [
      {"measurement": "GCMS peak for bromoform", "setting": "[8]", "result": "significant peak"}
    ]},
    {"molecule": "Purified VHPO (SEQ ID NO: 2): VHPO of Curvularia sp. 4388, reference VHPO; purified from recombinant P. pastoris (protein) MGSITPIPLPKIDEPEEYNTNYILFWNHVGLELNRVTHTVGGPLTGPPLSARALGMLHLAIHDAYFSIYPPTDFSTFLSPNAENAAYRLPSPNGANDARQAVAGAALKMLTSLYMKPVETPNPNPGANISDNAYAQLALVIDRSVLKAPGGVDRESASFMFGETVADVFFALLNDPRGASQEGYHPTPGRYKFDDEPTHPVVLIPVDPNNPNGPKKPFRQYHAPFYGKTTKRFATQSEHFLADPPGLRSNADETAEYDDAIRVAIAMGGAQALNSTKRSPWQTAQGLFWAYDGSNLIGTPPRFYNQIVRRIAVTYKKEEDLANSEVNNADFARLFALVDVACTDAGIFSWKEKWEYEFWRPLSGVRDDGRPDHGDPFWLTLGAPATNTNDIPFKPPFPAYPSGHATFGGAVFQMVRRYYNGRVGTWKDDEPDNIAIDMMISEELNGLNRDLRQPYDPTAPIEDQPGIVRTRIVRHFDSAWELMFENAISRIFLGVHWRFDAAAARDILIPTTTKDVYAVDNNGATVFQNVEDIRYTTKGTREDREGLFPIGGVPLGIEIADEIFNNGLKPTPPELQPMPQQTPVQKPVGQQPVQGMWAEEQAPVIKEAP", "values": [
      {"measurement": "Optimal pH", "setting": "[9]", "result": "pH 5.5"},
      {"measurement": "optimal pH of enzyme activity", "setting": "[9]", "result": 5.5}
    ]},
    {"molecule": "Purified VHPO (SEQ ID NO: 3): VHPO of Curvularia spicifera US-188; purified from recombinant P. pastoris (protein) MGSVTPIPIPRIDEPEEYNTNYILFWNHVGLELNRITHTVGGPLTGPPLSARALGMLHLAIHDAYFSICPPSDFTTFLSPDAENVAYRLPSLNGADDARQAVAGAALKMLSLLYMKPVEQPNPNPGANISDNAYAQLGLVLDRSVLKAPGGVDQESASFMFGEAVADVFFALLNDPRGASQEGYHPTLGRYKFDDEPTHPVVLIPVDPNNPNGPKKPFRQYHAPFYGKTTKRFATQSEHFLADPPGLRSNADETAEYDDSIRVAIAMGGAQGLNSTKRSPWQTAQGLYWAYDGSNLIGTPPRFYNQIVRRIAVTYKKEEDLANSEVNNADFARLFALVNVACTDAGIFSWKEKWEFEFWRPLSGVRDDGRPDHGDPFWLTLGAPATNTNDIPFKPPFPAYPSGHATFGGAVFQMVRRYYNGRVGTWKDDEPDNIAIDMMISEELNGLNRDLRQPYDPTAPIEDQPGIVRTRIVRHFDSAWEMMFENAISRIFLGVHWRFDAAAARDILIPTTTKDVYAVDNNGATVFQNVEDVRYSTKGTREGREGLFPIGGVPLGIEIADEIFNNGLRPTPPELQPMPQETPVQKPVEGMWEEEQAPIVNEAP", "values": [
      {"measurement": "Optimal pH", "setting": "[9]", "result": 6.5},
      {"measurement": "optimal pH of enzyme activity", "setting": "[9]", "result": 7}
    ]},
    {"molecule": "Purified VHPO (SEQ ID NO: 5): VHPO of Curvularia pseudobrachyspora US-215; purified from recombinant P. pastoris (protein) MGSVIPIPLPKIDEPEEYNTNYVLFWNNVGLELNRVTHTVGGPLTGPPLSARALGMLHLAIHDAYFSIYPPTDFTTFLSPDAENAAYRLPSLNGANDARQAVAGAALKMLSSLYMKPDSSSGGSISDNAYAQLALVIDRSVLKAPGGVDRESASFVFGEAVADVFFALLNDPRGASQEGYHPTPGRYKFDDEPTHPVVLVPVDPNNPNGPKKPFRQYHAPFYGKTTKRFATQTEHFLADPPGLRSNADETAEYDDSIRVAVAMGGAQGLNSTKRSPWQTAQGLFWAYDGSNLVGTPPRFYNQIVRRIAVTYKKEEDLANSEVNNADFARLFALVDVACTDAGIFSWKEKWEYEFWRPLSGVRDDGRPDHGDPFWLTLGAPATNTNDIPFKPPFPAYPSGHATFGGAVFQMVRRYYNGRVGTWKDDEPDNIAIDMVISEELNGLNRDLRQPYDPTAPIEDQPGIVRTRIVRHFDSAWEMMFENAISRIFLGVHWRFDAAAARDILIPTTTKDVYAVDNNGATVFQNVEDIRYSTKGTREDREGLFPIGGVPLGIEIADEIFNNGLRPTPPELQPMPQETPVQKPIGQQLVQGLWHDEEGQVPVVKEAP", "values": [
      {"measurement": "Optimal pH", "setting": "[9]", "result": "pH 5.5"},
      {"measurement": "optimal pH of enzyme activity", "setting": "[9]", "result": 5.5}
    ]},
    {"molecule": "Purified VHPO (SEQ ID NO: 7): VHPO of Curvularia protuberata US-1111; purified from recombinant P. pastoris (protein) MGSVTPIPLPKIDEPEEYNTNYILFWNYVGLELNRVTHTVGGPLTGPPLSARALGMLHLAVHDAYFSICPPTDFTTFLSPDAENAAYRLPSTNGANDARQAVAGAALKMLTSLYMKPIEQPNPNPSANISDNAYAQLALVLDRSAMEAPGGIDRESASFMFGEAVADVFFALLNDPRGASQEGYHPTPGRYKFDDEPTHPVVLIPVDPNNPNGPKKPFRQYHAPFYGKTTKRFATQSEHFLADPPGLRSNADETAEYDDAIRVAIAMGGAQALNSTKRSPWQTAQGLYWAYDGSNLIGTPPRFYNQIVRRIAVTYKKEEDIANSEVNNADFARLFALVDVACTDAGIFSWKEKWEFEFWRPLSGVRDDGRPDHGDPFWLTLGAPATNTNDIPFKPPFPAYPSGHATFGGAVFQMVRRYYNGRVGTWKDDEPDNIAIDMMISEELNGLNRDLRQPYDPTAPIEDQPGIVRTRIVRHFDSAWELMFENAISRIFLGVHWRFDAAAARDILIPTTTKDVYAVDNNGATVFQNVEDIRYTTKGTREDREGLFPIGGVPLGIEIANEIFENGLKPTPPEIQPMPQETPAQKPVKGMWQEEQVPVVEEAP", "values": [
      {"measurement": "Optimal pH", "setting": "[9]", "result": 5.5},
      {"measurement": "optimal pH of enzyme activity", "setting": "[9]", "result": 5},
      {"measurement": "optimal pH of enzyme activity", "setting": "[9]; listed as SEQ ID NO: 7", "result": 5}
    ]}
  ]
}
